The source of these data is publication PMC1972543, “Elevated carbohydrate phosphotransferase activity in human hepatoma and phosphorylation of cathepsin D” (British Journal of Cancer, 1991).

Assay [1] deals with T1, GlcNAc-phosphotransferase (UDP-GlcNAc: lysosomal enzyme GlcNAc alpha 1-phosphotransferase) (Homo sapiens, UniProt Q3T906).
T1 construct: gene GNPTAB; native enzyme in 600 g supernatant of human normal liver homogenate (autopsy tissue), not purified; alpha/beta precursor is cleaved into alpha and beta chains (alpha2beta2gamma2); with N-acetylglucosamine-1-phosphotransferase subunit gamma
T1 sequence (Q3T906 1-928): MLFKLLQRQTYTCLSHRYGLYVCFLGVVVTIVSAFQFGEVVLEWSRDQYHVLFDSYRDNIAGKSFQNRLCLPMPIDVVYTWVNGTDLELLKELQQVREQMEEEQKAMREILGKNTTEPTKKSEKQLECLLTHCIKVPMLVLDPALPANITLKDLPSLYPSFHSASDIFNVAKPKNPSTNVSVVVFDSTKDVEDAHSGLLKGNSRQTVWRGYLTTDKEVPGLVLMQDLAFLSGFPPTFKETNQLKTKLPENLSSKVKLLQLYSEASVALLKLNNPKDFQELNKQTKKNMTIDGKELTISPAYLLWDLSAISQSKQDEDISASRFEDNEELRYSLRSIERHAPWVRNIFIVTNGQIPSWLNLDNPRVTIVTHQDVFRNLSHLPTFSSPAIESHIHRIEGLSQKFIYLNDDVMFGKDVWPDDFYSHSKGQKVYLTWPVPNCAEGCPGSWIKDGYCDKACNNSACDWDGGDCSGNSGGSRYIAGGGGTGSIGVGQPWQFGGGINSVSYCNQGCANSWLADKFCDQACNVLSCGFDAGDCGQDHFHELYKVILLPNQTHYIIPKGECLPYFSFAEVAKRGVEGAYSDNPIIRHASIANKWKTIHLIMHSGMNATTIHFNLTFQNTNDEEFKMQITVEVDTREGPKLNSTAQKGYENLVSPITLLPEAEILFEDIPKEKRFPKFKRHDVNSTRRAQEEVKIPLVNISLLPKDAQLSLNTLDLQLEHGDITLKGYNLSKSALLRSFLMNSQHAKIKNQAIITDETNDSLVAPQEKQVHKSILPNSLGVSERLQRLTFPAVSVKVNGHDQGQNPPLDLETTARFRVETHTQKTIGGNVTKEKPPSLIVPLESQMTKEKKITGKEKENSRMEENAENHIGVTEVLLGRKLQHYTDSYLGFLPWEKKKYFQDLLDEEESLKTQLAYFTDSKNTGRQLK
T1 sequence (Q3T906 929-1256): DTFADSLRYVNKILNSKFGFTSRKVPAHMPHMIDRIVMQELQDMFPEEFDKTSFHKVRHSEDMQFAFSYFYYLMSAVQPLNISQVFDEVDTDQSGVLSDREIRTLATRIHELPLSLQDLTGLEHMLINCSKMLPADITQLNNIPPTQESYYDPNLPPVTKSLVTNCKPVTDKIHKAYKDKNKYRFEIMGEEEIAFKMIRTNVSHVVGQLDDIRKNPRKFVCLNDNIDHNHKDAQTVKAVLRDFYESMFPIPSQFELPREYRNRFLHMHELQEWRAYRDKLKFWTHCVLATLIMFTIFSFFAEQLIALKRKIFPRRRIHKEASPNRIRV
T1 sequence (Q9UJJ9 25-305 partner): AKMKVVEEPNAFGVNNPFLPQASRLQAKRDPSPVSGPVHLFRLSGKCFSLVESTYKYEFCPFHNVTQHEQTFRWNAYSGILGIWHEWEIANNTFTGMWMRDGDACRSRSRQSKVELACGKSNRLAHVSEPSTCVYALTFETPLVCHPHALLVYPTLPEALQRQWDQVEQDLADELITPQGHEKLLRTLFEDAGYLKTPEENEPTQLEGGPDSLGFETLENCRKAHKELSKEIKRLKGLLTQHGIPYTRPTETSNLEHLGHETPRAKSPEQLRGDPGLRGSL
Description: radiometric transferase assay, QAE-Sephadex. The class given is biochemical. The note with it: normal liver homogenate, range of three preparations, Mn2+, Mg2+, ATP, pH 7.4, 37 °C.

Assay [2] concerns the target T2, phosphodiester glycosidase (phosphodiester alpha-N-acetylglucosaminidase) (Homo sapiens, UniProt Q9UK23).
T2 construct: gene NAGPA; native enzyme in 600 g supernatant of human normal liver and hepatoma homogenates, not purified
T2 sequence (Q9UK23 50-515): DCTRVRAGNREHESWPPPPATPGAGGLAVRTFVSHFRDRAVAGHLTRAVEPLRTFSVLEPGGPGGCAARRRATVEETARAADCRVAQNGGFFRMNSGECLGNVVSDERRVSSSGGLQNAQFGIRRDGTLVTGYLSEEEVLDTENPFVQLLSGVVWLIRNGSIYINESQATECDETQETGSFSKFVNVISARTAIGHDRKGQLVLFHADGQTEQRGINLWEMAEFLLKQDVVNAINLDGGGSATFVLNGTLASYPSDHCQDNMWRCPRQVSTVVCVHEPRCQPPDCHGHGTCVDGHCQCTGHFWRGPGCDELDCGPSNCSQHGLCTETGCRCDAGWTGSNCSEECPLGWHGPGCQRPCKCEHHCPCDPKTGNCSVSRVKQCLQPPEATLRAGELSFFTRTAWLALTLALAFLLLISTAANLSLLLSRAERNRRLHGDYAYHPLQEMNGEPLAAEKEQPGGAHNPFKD
Description: radiometric release of [3H]GlcNAc, QAE-Sephadex. The format is biochemical. Conditions: liver homogenate; Triton X-100, N-acetylmannosamine, EDTA, pH 7.4, 37 °C; labelled compound.

As to `CC(=O)N[C@H]1[C@@H](OP(=O)(O)OP(=O)(O)OC[C@H]2O[C@@H](n3ccc(=O)[nH]c3=O)[C@H](O)[C@@H]2O)O[C@H](CO)[C@@H](O)[C@@H]1O` [UDP-GlcNAc], in assay [1] (acceptor alpha-methylmannoside, labelled compound), the Km (as a rule, the concentration of substrate that gives half-maximal velocity) was in the range of 0.027 to 0.037 mM.
For `CO[C@H]1O[C@H](COP(=O)(O)O[C@H]2O[C@H](CO)[C@@H](O)[C@H](O)[C@H]2NC(C)=O)[C@@H](O)[C@H](O)[C@@H]1O` [[6-3H]GlcNAc-P-6-(alpha-methyl)mannoside], the “radiometric release of [3H]GlcNAc, QAE-Sephadex” value in assay [2] is listed as “amount of the labelled substrate used for the glycosidase assay was not sufficient to measure Km”.
With `CO[C@H]1O[C@H](CO)[C@@H](O)[C@H](O)[C@@H]1O` [alpha-methylmannoside], in assay [1] (co-substrate [beta-32P]UDP-GlcNAc), the Km was in the range of 50 to 100 mM.
